Data from paper PMC5343222, “Inhibitory Activities of Stauntonia hexaphylla Leaf Constituents on Rat Lens Aldose Reductase and Formation of Advanced Glycation End Products and Antioxidant” (BioMed Research International, 2017).

Key:
[1] = tested on: advanced glycation end products (AGEs) formation; assay: Bovine serum albumin-methylglyoxal assay on AGEs formation; type: biochemical; details: BSA 50 mg/mL + methylglyoxal 100 mM, 37°C, 24 h; mean ± SEM
Protocol: Bovine serum albumin (50 mg/mL) was incubated with methylglyoxal (100 mM) in sodium phosphate buffer (0.1 M, pH 7.4) in the presence of various concentrations of the compounds (including a control) at 37°C for 24 h. Then the fluorescent intensity was measured at an excitation wavelength of 355 nm and an emission wavelength of 460 nm with a luminescence spectrometer LS50B (Perkin-Elmer Ltd., Buckinghamshire, England). […] All reagents and samples were sterilized by filtration through […] membrane filters.

[2] = molecular target: T1, rat lens aldose reductase (RLAR) (Rattus norvegicus, UniProt P07943); assay: In vitro determination of RLAR inhibition (NADPH decrease at 340 nm, DL-glyceraldehyde substrate); type: biochemical; details: crude RLAR from Sprague-Dawley rat lenses; mean ± SEM, three independent experiments in duplicate
T1 construct: the supernatant was collected and used as the RLAR; from tissue; host or cells: lens of Sprague-Dawley rats (crude homogenate supernatant)
Protocol: Crude RLAR was prepared as follows: lenses […] were removed from Sprague-Dawley rats and frozen at −70°C until use. Noncataractous transparent lenses were pooled and a homogenate was prepared in 0.1 M phosphate buffer saline (pH 6.2). RLAR homogenate was then centrifuged at 9600 ×g for 20 min. After centrifugation in a refrigerated centrifuge, the supernatant was collected and used as the RLAR. All procedures were carried out at 4°C [10].
RLAR activity was assayed spectrophotometrically by measuring the decrease in the absorption of NADPH at 340 nm over a 4 min period using DL-glyceraldehyde as the substrate. Each 1.0 mL cuvette contained equal units of the enzyme, 0.1 M sodium phosphate buffer (pH 6.2), 0.3 mM NADPH, with or without 10 mM of the substrate, and an inhibitor [11].

[3] = DPPH radical scavenging assay; details: for IC50: 15 min incubation in the dark, mean ± SEM; for inhibitory effect on DPPH (in words): at the same concentration when compared to other compounds
Protocol: The stable free radical, DPPH, was used to determine the free radical scavenging activity of the SHL extracts. Briefly, a 0.32 mM solution of DPPH in methanol was prepared, and then 180 µl of this solution was mixed with 30 µl of each sample (1.0 to 5.0 mg/mL in methanol). After 15 min of incubation in the dark, the decrease in the absorbance of the solution was measured at 570 nm on a microplate reader (EL800 Universal Microplate reader, Bio-Tek instruments, Winooski, VT, USA).

Compound | IC50 [1] | IC50 AGEs [1] | IC50 [2] | IC50 [3] | inhibitory effect on DPPH (in words) [3]
N=C(N)NN [Aminoguanidine, aminoguanidine, reference compound] | 820 ± 79.4 µM | 90.70 ± 8.71 µg/mL |  |  | 
O=C(O)CCc1ccc(O)c(O)c1 [Compound 1, 3-(3,4-dihydroxyphenyl)-propionic acid] | 184 ± 17.6 µM |  | > 1000 µM | 110 ± 9.39 µM | 
O=C(/C=C/c1ccc(O)c(O)c1)O[C@@H]1C[C@](O)(C(=O)O)C[C@@H](O)[C@H]1O [Compound 2, chlorogenic acid] | > 1000 µM |  | 8.35 ± 0.45 µM |  | 
O=C(/C=C/c1ccc(O)c(O)c1)OC[C@H]1O[C@@H](OCCc2ccc(O)c(O)c2)[C@H](O)[C@@H](O)[C@@H]1O [Compound 4, calceolarioside B] | > 1000 µM |  | 24 ± 2.3 µM | 94.6 ± 6.86 µM | 
O=c1cc(-c2ccc(O)c(O[C@@H]3O[C@H](CO)[C@@H](O)[C@H](O)[C@H]3O)c2)oc2cc(O)cc(O)c12 [Compound 5, luteolin-3′-O-β-D-glucopyranoside] | 118 ± 11.5 µM |  | 7.34 ± 0.35 µM | 96.3 ± 9.19 µM | 
O=c1c(O[C@@H]2O[C@H](CO)[C@@H](O)[C@H](O)[C@H]2O)c(-c2ccc(O)c(O)c2)oc2cc(O)cc(O)c12 [Compound 6, quercetin-3-O-β-D-glucopyranoside] | > 1000 µM |  | 10.4 ± 1.38 µM | 122 ± 10.9 µM | 
O=c1cc(-c2ccc(O)c(O)c2)oc2cc(O[C@@H]3O[C@H](CO)[C@@H](O)[C@H](O)[C@H]3O)cc(O)c12 [Compound 7, luteolin-7-O-β-D-glucopyranoside] | > 1000 µM |  | 16.1 ± 1.2 µM | > 1000 µM | no an inhibitory effect
O=C1O[C@H]([C@@H](O)CO)C(O)=C1O [L-ascorbic acid, reference compound] |  |  |  | 54.4 ± 5.73 µM | 
O=c1cc(-c2ccc(O)c(O[C@@H]3O[C@H](CO)[C@@H](O)[C@H](O)[C@H]3O)c2)oc2cc(O)cc(O)c12 [luteolin-3′-O-β-D-glucopyranoside] |  |  | 7.34 to 24 µM |  | 
O=c1cc(-c2ccc(O)c(O)c2)oc2cc(O[C@@H]3O[C@H](CO)[C@@H](O)[C@H](O)[C@H]3O)cc(O)c12 [luteolin-7-O-β-D-glucopyranoside] |  |  | 7.34 to 24 µM |  | 
O=c1c(O[C@@H]2O[C@H](CO)[C@@H](O)[C@H](O)[C@H]2O)c(-c2ccc(O)c(O)c2)oc2cc(O)cc(O)c12 [quercetin-3-O-β-D-glucopyranoside] |  |  | 7.34 to 24 µM |  | 
neochlorogenic acid [Compound 3] | 115 ± 10.5 µM |  | 72 ± 25.8 µM | > 1000 µM | no an inhibitory effect
